Experimental data from PubChem BioAssay AID179 (DTP/NCI, 2004).
Several values for one entry are separate records, joined by “and”; a condition that tells them apart may be missing. Equal entries are not always repeated. Activity calls are given as the source filed them.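 Rule for the calls: active = compounds giving half or more protection of infected cells from virus-caused growth loss, again on retest; inactive = the rest.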

Test system: CEM cells HIV-1 protection, formazan growth assay
Assay: NCI AIDS Antiviral Assay
Settings: for IC50: measured here: growth of uninfected CEM cells
Procedure, shortened: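 Protection of CEM cells against HIV-1 was scored from cell growth (soluble formazan) across five concentrations, with parallel uninfected cells. Lack of protection may reflect toxicity.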

CC(=O)C1(O)CC2(c3ccccc3)C(=O)C1(c1ccccc1)C(c1ccccc1)=C2c1ccccc1 (configuration not stated)
outcome: inactive

CCOc1ccccc1NC(=O)CC1SC(=Nc2ccc([N+](=O)[O-])cc2)NC1=O (configuration not stated)
EC50: > 229 µM | IC50: 93.3 µM

S=c1[nH]nc(Cn2c3ccc(Br)cc3c3nc4ccccc4nc32)n1C1CCCCC1
EC50: > 200 µM | IC50: 51.3 µM

COc1cc(CNc2cnc3cc(N)ccc3n2)cc(OC)c1OC
EC50: > 200 µM | IC50: 6.46 µM

CN1c2ccccc2N(C(=O)c2ccccc2)C(CC(=O)O)c2cccn21 (configuration not stated)
EC50: > 692 µM | IC50: 288 µM

O=Cc1ccc(-c2ccc(-c3ccc(CO)s3)o2)s1
outcome: inactive

S=C(N/N=C/c1ccccc1)Nc1ccc(Oc2ccc(NC(=S)N/N=C/c3ccccc3)cc2)cc1
EC50: 8.91 µM | IC50: 11.7 µM

CC[C@H]1CN2CCc3cc(OC)c(OC)cc3[C@@H]2C[C@@H]1C[C@H]1NCCc2cc(O)c(OC)cc21
outcome: inactive

CCOP(=O)(OCC)OC(C#N)c1ccc(-c2ccccc2)cc1 (configuration not stated)
EC50: > 89.1 µM | IC50: 45.7 µM

CCCCC1Sc2cc(OC)cc([N+](=O)[O-])c2NC1=O (configuration not stated)
EC50: > 200 µM | IC50: 61.7 µM

COc1cccc(N2C(=O)C3C4C=C5c6ccccc6N(c6ccccc6)C5(C3C2=O)[C@H]2C(=O)N(c3cccc(OC)c3)C(=O)[C@@H]42)c1 (some centres not stated)
EC50: > 4.37 µM | IC50: > 4.37 µM

C=CCCC1CCCCC/C1=N\N(C)C (configuration not stated)
EC50: > 200 µM | IC50: > 200 µM

COC(CN(C)C(=O)C(C)NC(=O)c1ccccc1)OC (configuration not stated)
outcome: inactive

CCC1C(=O)OC2OC(c3ccccc3)(c3ccccc3)NC21 (configuration not stated)
EC50: > 200 µM | IC50: > 100 µM

O=c1n(-c2ccccc2)c(=O)n2n1C1C=CC2CCCCCC1
EC50: > 200 µM | IC50: > 200 µM

Cc1cc(CO)c(O)c(CN(CC(=O)O)CC(=O)O)c1
EC50: > 200 µM | IC50: 141 µM

CC(=O)OCC1OC(n2c(-c3ccc(Cl)cc3)ccc(C#N)c2=S)C(OC(C)=O)C(OC(C)=O)C1OC(C)=O (configuration not stated)
EC50: > 200 µM | IC50: > 200 µM

Nc1nc2n(n1)C(=O)C(=O)N2
EC50: > 115 µM | IC50: > 115 µM

O=C1/C(=C/c2ccc(O)cc2)Oc2cc(O)ccc21
EC50: > 204 µM | IC50: 66.1 µM

CC(=O)Nc1cc2c(O)c(N=Nc3ccc(C(=O)Nc4ccc(N=Nc5ccc(S(=O)(=O)O)cc5)cc4)cc3)c(S(=O)(=O)O)cc2cc1S(=O)(=O)O
outcome: active

O=c1cc(-c2ccccc2)oc2cc(OCCCCCCCCCCOc3ccc4c(=O)cc(-c5ccccc5)oc4c3)ccc12
EC50: > 1.7 µM | IC50: > 1.7 µM

Cc1ccc2ccc3c(-c4ccccc4)cc(C)nc3c2n1.Cc1ccc2ccc3c(-c4ccccc4)cc(C)nc3c2n1.O=C1OC(C(O)C[O-])C(O)=C1O.[Cu+]
EC50: > 12.6 µM | IC50: 0.55 µM

O=c1[nH]nc(-c2ccccc2)n1/N=C\CC/C=N\n1c(-c2ccccc2)n[nH]c1=O
outcome: inactive

O=[N+]([O-])c1ccc(N=Cc2ccc(O)cc2)cc1
EC50: > 200 µM | IC50: 10 µM

FC(F)(F)P1C2C=CC(CC2)C1(F)F (configuration not stated)
EC50: > 251 µM | IC50: > 251 µM

CCOC(=O)c1c(SC(=O)c2ccc(Cl)cc2)n(-c2ccccc2)c(=S)n(-c2ccccc2)c1=O
EC50: > 200 µM | IC50: 141 µM

CCCc1cc(-c2ccc(-c3cc(CCC)c(C=O)[nH]3)s2)[nH]c1C=O
EC50: > 5.62 µM | IC50: 1.62 µM

O=C(NCCN1CCCCC1)c1cccc(I)c1
EC50: > 200 µM | IC50: > 200 µM

CCCc1cc(=O)oc2c3c(c4c(c12)OC(C)(C)CC4)O[C@H](C)C(C)[C@@H]3O (some centres not stated)
EC50: > 200 µM | IC50: 162 µM

CCN(CC)C(=O)N1CCN(C)CC1
EC50: > 200 µM | outcome: inactive | IC50: > 200 µM

O=C(/C=C/c1ccc(O)cc1)OC[C@@H](O)COC1OC(CO)C(O)C(O)C1O (some centres not stated)
outcome: inactive

Cc1ccc(N2C(=O)/C(=C/c3ccc(N(CCC#N)CCC#N)cc3)N=C2COc2ccc(Cl)cc2Cl)cc1
outcome: inactive

CC1=NNC(N)=N/C1=C\C(Sc1ccc(Cl)cc1)c1ccc([N+](=O)[O-])cc1 (configuration not stated)
EC50: > 117 µM | IC50: 30.9 µM

CC(C)C(=O)Nc1nc2c(ncn2C2OC(CO)C(O)C2O)c(=O)[nH]1 (configuration not stated)
EC50: > 708 µM | IC50: 513 µM

Cc1ccc2nsnc2c1[N+](=O)[O-]
EC50: > 257 µM | IC50: > 257 µM

CC1(CCc2ccccc2)CC1(Br)Br (configuration not stated)
EC50: > 200 µM | IC50: 95.5 µM

CCOC(=O)CCC(NC(=O)c1ccc(Nc2nc3cc(C(F)(F)F)ccc3nc2-c2ccccc2)cc1)C(=O)OCC (configuration not stated)
EC50: > 200 µM | IC50: 8.13 µM

O=C(/C=C/c1ccccc1)NC(=S)NCc1ccco1
EC50: > 200 µM | IC50: > 200 µM

C[n+]1ccc(-c2c3nc(c(-c4cc[n+](C)cc4)c4ccc([n-]4)c(-c4cc[n+](C)cc4)c4nc(c(-c5cc[n+](C)cc5)c5ccc2[n-]5)C=C4)C=C3)cc1.[I-].[Zn+2]
EC50: > 72.4 µM | IC50: 14.1 µM

C=Cc1ccc(C)[n+](C[Si](C)(C)O[Si](C)(C)C[n+]2cc(C=C)ccc2C)c1
EC50: > 380 µM | IC50: 245 µM

COc1ccc2c(c1)OC[C@@H]1c3cc4c(cc3O[C@H]21)OCO4
EC50: > 63.1 µM | IC50: > 63.1 µM

CCOC(=O)CSCn1ncc2ccc([N+](=O)[O-])cc21
outcome: inactive

CCCC12C(C(=O)OC)C(=O)C(C(=O)OC)C1(C)C(C(=O)OC)C(=O)C2C(=O)OC (configuration not stated)
EC50: > 138 µM | IC50: 97.7 µM

CCC1c2c(cc(=O)[nH]c2O)C(=O)N1Cc1ccccc1 (configuration not stated)
EC50: > 398 µM | IC50: > 398 µM

CCOP(=O)(OCC)C(Cc1ccc(OC)cc1)NC(=O)C(CC(C)C)NC(=O)OCc1ccccc1 (configuration not stated)
EC50: > 126 µM | IC50: 8.91 µM

CC(=O)Oc1ccc(/C=C/C(=O)OCCOC(=O)/C=C/c2ccc(OC(C)=O)c(OC(C)=O)c2)cc1OC(C)=O
EC50: > 20 µM | IC50: 8.71 µM

O=C(O)C1=C(C(=O)O)C2c3ccccc3C1c1ccccc12
EC50: > 200 µM | IC50: > 200 µM

CC(C)OP(=O)(OC(C)C)C(C(C)C)N(C)/C(N)=N\C1=NC(C(F)(F)F)(C(F)(F)F)N=C(C(C(F)(F)F)C(F)(F)F)O1 (configuration not stated)
EC50: > 200 µM | IC50: 0.0631 µM

Cc1cc(=O)oc2cc(OCc3nc4ccccc4c(=O)o3)ccc12
outcome: inactive

O=C1c2cc3c(cc2CC1Br)CCC3 (configuration not stated)
EC50: > 20 µM | IC50: 0.38 µM

Cc1cccc2c1c1ccc3c(c1n2C)C(=O)C=CC3=O
EC50: > 18.2 µM | IC50: 9.77 µM

c1ccc(-c2ccccn2)nc1
EC50: > 1580 µM | IC50: 27.5 µM

COC(=O)/C=C/COCC1C2CCC(=O)C21 (configuration not stated)
EC50: > 151 µM | IC50: > 151 µM

N#CCC(O)CC#N
outcome: inactive

CCCCCCCC(=O)c1c(O)c2ccccc2oc1=O
EC50: > 200 µM | IC50: 26.9 µM

CC1=NN(C(=O)CC(=O)NC(=O)/C=C\c2ccccc2)C(=O)C1N=Nc1ccc([N+](=O)[O-])cc1 (configuration not stated)
outcome: inactive

CC1=C2c3ccccc3N(C(=O)/C=C/C(=O)O)[C@H]2[C@H]2C(=O)OC(=O)[C@H]2C1
EC50: > 200 µM | IC50: 151 µM

OC(CC(O)(C(F)(F)F)C(F)(F)F)C(O)c1ccco1 (configuration not stated)
EC50: > 200 µM | IC50: 58.9 µM

CC(=O)Nc1ccc(S(=O)(=O)n2oc(=O)c(-c3ccccc3)c2N)cc1
EC50: > 200 µM | IC50: 105 µM

COP(=O)(O)C(N)Cc1c[nH]c2ccccc12 (configuration not stated)
EC50: > 200 µM | IC50: > 200 µM

N#CC1=C(Nc2ccccc2)SC=C(c2ccccc2)NC1=NCc1ccccc1
EC50: > 200 µM | IC50: 97.7 µM

CCC1C[N+]23CCc4c([nH]c5ccccc45)C2CC1CC3 (configuration not stated)
EC50: > 57.5 µM | IC50: > 57.5 µM

COc1ccc(COC(=O)NCC(=O)NC(C)C(=O)NC(Cc2ccccc2)C(=O)OCc2ccccc2)cc1 (configuration not stated)
EC50: > 200 µM | IC50: 45.7 µM and 12.9 µM

CC(CC(C)[C@H]1CCC2[C@H]3C(CC[C@@]21C)[C@@]1(C)CCC(O)C[C@H]1C[C@@H]3O)C(=O)O (some centres not stated)
outcome: inactive

COc1cc(Nc2nc3cc(C(F)(F)F)ccc3nc2-c2ccccc2)cc(OC)c1OC
EC50: > 41.7 µM | IC50: > 41.7 µM

COC1(OC)CC2C(=O)N(Cc3ccccc3)C1C=C2S(=O)(=O)c1ccccc1 (configuration not stated)
outcome: inactive

CC(/C=N\NC(=S)N1CCCCC1)=N/NC(=S)N1CCCCC1
EC50: > 200 µM | IC50: 1.78 µM

CCOC(=O)C1=C(C)NC2=C(C(=O)CC(C)(C)C2)C1CCSC (configuration not stated)
EC50: > 200 µM | IC50: > 200 µM

CC(=O)OC1(C#N)CC2OC1C1C2N=NN1C(=O)OC(C)(C)C (configuration not stated)
EC50: > 209 µM | IC50: 28.8 µM

c1cc(CSSCc2ccncc2)ccn1
EC50: > 200 µM | IC50: 0.891 µM

CC1=NC(C)(C)N(O)C1(C)C
EC50: > 200 µM | IC50: > 200 µM

COc1cc2ccc1-c1cc(ccc1O)CC1c3cc4c(cc3CCN1C)Oc1c(OC)cc3c(c1O4)C(C2)N(C)CC3 (configuration not stated)
outcome: inactive

COc1ccccc1N=Nc1c(S(=O)(=O)O)cc2cc(NC(=O)Nc3ccc4c(O)c(N=Nc5c(N)ccc6cc(S(=O)(=O)O)ccc56)c(S(=O)(=O)O)cc4c3)ccc2c1O
outcome: active

COC(=O)C(=O)C(C#N)c1cccc(O)c1C(=O)OC (configuration not stated)
EC50: > 36.3 µM | IC50: > 36.3 µM

COC1CC(CC(C)=O)CN(C#N)CCc2c1[nH]c1ccccc21 (configuration not stated)
EC50: > 132 µM | IC50: > 132 µM

NC(N)=N/N=C(\c1ccc(F)cc1)C1CC1
EC50: > 200 µM | IC50: 33.9 µM

O=C(c1cc2ccccc2o1)N(Cc1ccccc1)c1ccccc1
EC50: > 79.4 µM | IC50: > 79.4 µM

CCN(CC)C(=O)O/N=C(/C)c1ccccc1
EC50: > 200 µM | IC50: > 200 µM

CSC1=Nc2ccccc2N(C)c2c1c(-c1ccccc1)nn2C
EC50: > 200 µM | IC50: 43.7 µM

COC(OC)[C@@H]1OC[C@H](n2cnc3c(N)ncnc32)[C@H]1O
EC50: > 200 µM | IC50: > 200 µM

C=CCc1cc2c(C)cc(=O)oc2c(C)c1OC(C)=O
EC50: > 19.1 µM | IC50: > 19.1 µM

CC(=O)OC(/C=C/c1ccccc1)=C(OC(C)C)/C1=C(\c2ccccc2)SCCCSC1=O
EC50: > 200 µM | IC50: > 200 µM

COc1ccc(/C=C2\N=C(N3CCCC(CO)C3)NC2=O)cc1 (configuration not stated)
EC50: > 200 µM | IC50: > 200 µM

Cc1cnc2cc(Cl)ccc2c1NCCN(CC(C)C)CC(C)C
EC50: > 1 µM | IC50: > 1 µM

Oc1cccnc1/C=N/OCc1ccccc1
EC50: > 295 µM | IC50: 219 µM

Cc1noc(C(F)(F)Sc2ncccn2)n1
EC50: 174 µM | IC50: > 200 µM
